One experiment has as its target Estrogen receptor (Homo sapiens, UniProt P03372).
The target of experiment [1] is T1, Estrogen receptor beta (Homo sapiens, UniProt Q92731).
For experiment [2], the target named is T1, Estrogen receptor beta. Kind of experiment: blockers of SRC-3 recruitment to ERβ – biochemical, ELISA, streptavidin-HRP readout, orthogonal assay, confirmation (AID 1060). (In general: ELISA stands for enzyme-linked immunosorbent assay.)
For experiment [3], the target named is T2, Small ubiquitin-related modifier 1 (Homo sapiens, UniProt P63165). Description: SUMO1 protein interaction blockers, potency – biochemical, fluorescence polarization, uHTS hits, dose response (AID 624382). The experiment is classed as functional. The conditions noted are these: read-out: IC50_Mean.
Experiment [4] concerns the target T2, Small ubiquitin-related modifier 1. Description: SUMO1 protein-protein binding blockers, potency – biochemical, FRET, dose response (AID 624383). Conditions: read-out: IC50_Mean. The experiment is classed as functional.
The test system of a further experiment is HEK293. Description: EBV LMP1 TES2 canonical NF-kB signalling blockers – cell-based, HEK293, luciferase, cherry-pick, dose response (AID 588343). The format is functional. The conditions noted are these: Homo sapiens.
The target of experiment [5] is T3, Interleukin-8 (Homo sapiens, UniProt P10145). Kind of experiment: Dose Response confirmation of uHTS small molecule hits for cystic fibrosis induced NFkb Inhibitors in a TNFa-induced IL8 counterscreen. The format is functional. Conditions: read-out: IC50_Mean. (In general: Counterscreens check selectivity or assay interference.)
Experiment [6] concerns the target T3, Interleukin-8. Kind of experiment: Dose Response confirmation of uHTS small molecule hits for cystic fibrosis induced NFkb Inhibitors in a PAF-induced IL8 counterscreen. The format is functional. Conditions: read-out: IC50_Mean.
Experiment [7] addresses Beta-lactamase (Salmonella choleraesuis (strain SC-B67), UniProt Q5J463). Description: Epi-absorbance-based counterscreen for selective VIM-2 inhibitors: dose response biochemical high throughput screening assay to identify inhibitors of TEM-1 serine-beta-lactamase.
In experiment [8] the target is T4, Beta-lactamase (Pseudomonas aeruginosa, UniProt Q79MP6). Kind of experiment: inhibition of IMP-1 beta-lactamase activity – biochemical, epi-absorbance, selectivity assay for VIM-2 inhibitor project, dose response (AID 1920).
In experiment [9] the target is T4, Beta-lactamase. Description: […] counterscreen for selective VIM-2 inhibitors: dose response biochemical high throughput screening assay to identify inhibitors of IMP-1 metallo-beta-lactamase.
The target in experiment [10] is T5, Short transient receptor potential channel 4 (Mus musculus, UniProt Q9QUQ5).
T5 sequence (Q9QUQ5 whole entry): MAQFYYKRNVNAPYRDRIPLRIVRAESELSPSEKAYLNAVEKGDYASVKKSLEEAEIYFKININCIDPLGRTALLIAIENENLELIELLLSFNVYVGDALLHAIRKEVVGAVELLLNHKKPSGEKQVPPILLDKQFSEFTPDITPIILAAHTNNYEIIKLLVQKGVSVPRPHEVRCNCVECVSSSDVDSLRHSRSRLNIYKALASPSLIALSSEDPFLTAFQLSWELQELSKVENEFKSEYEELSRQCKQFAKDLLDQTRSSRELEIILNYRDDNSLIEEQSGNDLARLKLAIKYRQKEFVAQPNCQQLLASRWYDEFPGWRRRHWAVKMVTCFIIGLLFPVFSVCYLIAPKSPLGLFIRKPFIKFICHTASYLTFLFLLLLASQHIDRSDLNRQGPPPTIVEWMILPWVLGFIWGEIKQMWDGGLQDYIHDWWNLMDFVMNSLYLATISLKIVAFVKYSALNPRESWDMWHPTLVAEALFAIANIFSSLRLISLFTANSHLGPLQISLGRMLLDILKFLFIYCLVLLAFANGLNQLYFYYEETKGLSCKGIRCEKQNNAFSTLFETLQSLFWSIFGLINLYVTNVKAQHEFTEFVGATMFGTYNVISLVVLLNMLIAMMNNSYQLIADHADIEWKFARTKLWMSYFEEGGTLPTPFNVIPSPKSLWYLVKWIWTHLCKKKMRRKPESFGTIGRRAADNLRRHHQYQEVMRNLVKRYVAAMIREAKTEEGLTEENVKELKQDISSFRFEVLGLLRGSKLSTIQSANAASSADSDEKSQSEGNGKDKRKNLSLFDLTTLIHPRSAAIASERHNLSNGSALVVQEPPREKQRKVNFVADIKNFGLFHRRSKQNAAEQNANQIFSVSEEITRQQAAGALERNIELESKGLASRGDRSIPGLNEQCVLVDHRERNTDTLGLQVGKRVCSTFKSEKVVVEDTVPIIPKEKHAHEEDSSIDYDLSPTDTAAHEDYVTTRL
Description: block of DAMGO-driven TRPC4 calcium entry – cell-based, HEK293 TRPC4/mu-opioid, Fluo-4 calcium, dose response (AID 434942).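 Further: potency of inhibitors blocking the TRPC4 calcium response.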 The experiment is classed as functional.

In experiment [11] the target is T5, Short transient receptor potential channel 4. Kind of experiment: calcium entry via TRPC4 opening agents – cell-based, HEK293 TRPC4/mu-opioid, Fluo-4 calcium, dose response (AID 434937). The experiment is classed as functional.
A short description of experiment [12]: inhibition of ARNT PAS-B/TACC3 complex formation – biochemical, AlphaScreen, cherry-picked samples, confirmation (AID 651703).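 Further: His-tagged ARNT PAS-B domain paired with GST-TACC3 E629A dimer coactivator fragment; potency of inhibitors that break up the complex and lower AlphaScreen signal.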 The format is functional, Homo sapiens. A general note: Bead proximity is the source of the signal in Alpha formats.

Experimental findings from ChEMBL document CHEMBL1201862, “PubChem BioAssay data set” (2004) are described below.

The source made the active and inactive calls.

T2 sequence (P63165 whole entry): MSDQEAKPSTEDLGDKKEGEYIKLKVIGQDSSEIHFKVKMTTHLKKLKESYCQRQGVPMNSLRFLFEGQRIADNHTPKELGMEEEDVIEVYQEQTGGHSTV
T4 sequence (Q79MP6 whole entry): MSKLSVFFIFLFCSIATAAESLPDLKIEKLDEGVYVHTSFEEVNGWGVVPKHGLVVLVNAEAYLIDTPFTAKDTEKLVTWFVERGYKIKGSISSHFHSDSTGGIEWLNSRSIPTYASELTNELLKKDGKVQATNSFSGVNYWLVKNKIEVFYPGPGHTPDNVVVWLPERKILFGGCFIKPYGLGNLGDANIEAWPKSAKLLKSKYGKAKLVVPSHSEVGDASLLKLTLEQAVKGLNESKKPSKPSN
T1 sequence (Q92731 whole entry): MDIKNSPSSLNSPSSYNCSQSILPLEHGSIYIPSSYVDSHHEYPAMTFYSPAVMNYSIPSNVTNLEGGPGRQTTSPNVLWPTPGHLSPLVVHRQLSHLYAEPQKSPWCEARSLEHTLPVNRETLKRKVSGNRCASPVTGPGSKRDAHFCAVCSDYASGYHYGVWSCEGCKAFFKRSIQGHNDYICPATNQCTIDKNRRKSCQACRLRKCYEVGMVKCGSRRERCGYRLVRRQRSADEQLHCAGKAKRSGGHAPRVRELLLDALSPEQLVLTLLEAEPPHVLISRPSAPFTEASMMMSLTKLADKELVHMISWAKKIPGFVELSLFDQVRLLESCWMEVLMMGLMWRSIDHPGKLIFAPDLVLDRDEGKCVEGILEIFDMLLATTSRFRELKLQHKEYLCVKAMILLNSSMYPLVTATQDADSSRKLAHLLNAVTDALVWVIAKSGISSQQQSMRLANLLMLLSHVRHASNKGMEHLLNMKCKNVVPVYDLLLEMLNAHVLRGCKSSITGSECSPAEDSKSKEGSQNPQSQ
T3 sequence (P10145 whole entry): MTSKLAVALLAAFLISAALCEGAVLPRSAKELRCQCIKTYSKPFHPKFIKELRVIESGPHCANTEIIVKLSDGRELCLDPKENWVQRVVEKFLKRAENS
Chain of Beta-lactamase (Salmonella choleraesuis (strain SC-B67), UniProt Q5J463) (Q5J463 whole entry): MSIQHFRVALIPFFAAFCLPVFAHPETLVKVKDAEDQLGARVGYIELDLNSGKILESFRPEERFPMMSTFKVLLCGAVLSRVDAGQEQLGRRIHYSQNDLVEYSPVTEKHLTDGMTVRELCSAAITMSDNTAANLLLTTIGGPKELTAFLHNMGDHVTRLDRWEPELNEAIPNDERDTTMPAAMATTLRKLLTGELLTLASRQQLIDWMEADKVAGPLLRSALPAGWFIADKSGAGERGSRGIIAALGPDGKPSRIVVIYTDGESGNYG
Chain of Estrogen receptor (P03372 whole entry): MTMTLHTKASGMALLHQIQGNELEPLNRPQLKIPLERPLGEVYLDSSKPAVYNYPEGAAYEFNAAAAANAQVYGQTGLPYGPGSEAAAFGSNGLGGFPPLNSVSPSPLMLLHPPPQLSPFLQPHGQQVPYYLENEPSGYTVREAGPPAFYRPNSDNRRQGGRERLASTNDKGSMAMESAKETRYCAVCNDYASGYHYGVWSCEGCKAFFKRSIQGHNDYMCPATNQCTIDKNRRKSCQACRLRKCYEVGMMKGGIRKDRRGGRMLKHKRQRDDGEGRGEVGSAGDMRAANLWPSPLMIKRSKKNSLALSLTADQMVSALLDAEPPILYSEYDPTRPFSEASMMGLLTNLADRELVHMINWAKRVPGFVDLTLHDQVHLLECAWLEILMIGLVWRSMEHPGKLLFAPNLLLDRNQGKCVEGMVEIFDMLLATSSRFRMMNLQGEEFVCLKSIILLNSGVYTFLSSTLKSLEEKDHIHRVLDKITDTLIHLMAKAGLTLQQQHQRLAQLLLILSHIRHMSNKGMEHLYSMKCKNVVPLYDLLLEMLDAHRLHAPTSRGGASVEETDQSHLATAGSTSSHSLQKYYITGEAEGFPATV

As for `Cc1nc2cc(-c3ccsc3-n3c(C)ccc3C)nn2c(O)c1Cl`, the IC50 was 27.5 µM (active) on Estrogen receptor; 7.66 µM (active) at Estrogen receptor beta [1]; 1.53 µM (not active) at Estrogen receptor beta [2]; > 66.6 µM (inactive) in [3]; 10.7 µM (active) in experiment [4].
The AC50 is the concentration giving half of the maximal activity seen. As to `Cc1cc(N2CCOCC2)c2c(N)c(Br)cc(C)c2n1`, the AC50 in the experiment with HEK293 was 8.08 µM (active). Also, the IC50 was > 79 µM (inactive) on Interleukin-8 [5] and 8.34 µM (active) on Interleukin-8 [6].
With `NC(=O)SCC(=O)Nc1ccccc1C(=O)O`, the IC50 is > 59.6 µM (inactive) at Beta-lactamase [7], > 59.6 µM (inactive) on Beta-lactamase [8] and 24.1 µM (inactive) at Beta-lactamase [9].
Usually EC50 stands for the midpoint of the concentration-response curve. With `COc1cccc(CNCc2ccccn2)c1OC`, the EC50 is 0.299 µM (active) in [10] and 0.267 µM (active) in experiment [11]. Moreover, the AC50 in experiment [12] is 116 µM (active).
